Laboratory results as given in the supplement of paper PMC5908809.

Experiments:
[1] = test system: normal NK cells expanded with K562-aAPC; test: drug sensitivity score (DSS) (DSS units); higher = more sensitive; extreme values may be limits of the assay; conditions: 72 h; IL-2 2.5 ng/mL
Protocol: (§1)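 Drug sensitivity and resistance testing on K562-aAPC-expanded normal NK cells: 5 concentrations (10-fold steps over a 10,000-fold range), 72 h at 37 °C, viability by CellTiter-Glo normalised to DMSO and benzethonium chloride controls; DSS from the fitted curve.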

NK-92 (IL-2 2.5 ng/mL) [2] = test: as above; conditions: 72 h
NK-YS (IL-2 2.5 ng/mL) [3] = test: as above; conditions: 72 h
[4] = test system: normal primary NK cells, pool 3 (3 donors) (IL-2 2.5 ng/mL); test: as above; conditions: 72 h
[5] = test system: normal primary NK cells, pool 1 (3 donors), resting (IL-2 0 ng/mL); test: as above; conditions: 72 h
KHYG-1 (IL-2 2.5 ng/mL) [6] = test: as above; conditions: 72 h
[7] = test system: normal primary NK cells, pool 1 (3 donors) (IL-2 2.5 ng/mL); test: as above; conditions: 72 h
[8] = test system: normal primary NK cells, pool 2 (3 donors) (IL-2 2.5 ng/mL); test: as above; conditions: 72 h
SNK-6 (IL-2 2.5 ng/mL) [9] = test: as above; conditions: 72 h
KAI3 (IL-2 2.5 ng/mL) [10] = test: as above; conditions: 72 h
NKL (IL-2 2.5 ng/mL) [11] = test: as above; conditions: 72 h
IMC-1 (IL-2 20 ng/mL) [12] = test: as above; conditions: 72 h
YT (IL-2 2.5 ng/mL) [13] = test: as above; conditions: 72 h
DERL-7 (IL-2 2.5 ng/mL) [14] = test: as above; conditions: 72 h
NK-92 (IL-2 2.5 ng/mL) [15] = test: percent inhibition of viability; higher = more inhibition; conditions: 72 h
NK-YS (IL-2 2.5 ng/mL) [16] = test: as above; conditions: 72 h
[17] = test system: normal primary NK cells, pool 3 (3 donors) (IL-2 2.5 ng/mL); test: as above; conditions: 72 h
[18] = test system: normal primary NK cells, pool 1 (3 donors), resting (IL-2 0 ng/mL); test: as above; conditions: 72 h
KHYG-1 (IL-2 2.5 ng/mL) [19] = test: as above; conditions: 72 h
[20] = test system: normal primary NK cells, pool 1 (3 donors) (IL-2 2.5 ng/mL); test: as above; conditions: 72 h
[21] = test system: normal primary NK cells, pool 2 (3 donors) (IL-2 2.5 ng/mL); test: as above; conditions: 72 h
SNK-6 (IL-2 2.5 ng/mL) [22] = test: as above; conditions: 72 h
KAI3 (IL-2 2.5 ng/mL) [23] = test: as above; conditions: 72 h
NKL (IL-2 2.5 ng/mL) [24] = test: as above; conditions: 72 h
IMC-1 (IL-2 20 ng/mL) [25] = test: as above; conditions: 72 h
YT (IL-2 2.5 ng/mL) [26] = test: as above; conditions: 72 h
DERL-7 (IL-2 2.5 ng/mL) [27] = test: as above; conditions: 72 h
[28] = test system: normal NK cells expanded with K562-aAPC; test: as above; conditions: 72 h, IL-2 2.5 ng/mL
Protocol: as §1

C[C@]12CC[C@H](O)CC1=CC[C@@H]1[C@@H]2CC[C@]2(C)C(c3cccnc3)=CC[C@@H]12 [Abiraterone] (max concentration tested 5000 nM)
Conditions | drug sensitivity score
DERL-7 (IL-2 2.5 ng/mL) [14] | 0
IMC-1 (IL-2 20 ng/mL) [12] | 1.72
KAI3 (IL-2 2.5 ng/mL) [10] | 1.81
KHYG-1 (IL-2 2.5 ng/mL) [6] | 0
NK-92 (IL-2 2.5 ng/mL) [2] | 3.2
NK-YS (IL-2 2.5 ng/mL) [3] | 0.2
NKL (IL-2 2.5 ng/mL) [11] | 0
SNK-6 (IL-2 2.5 ng/mL) [9] | 0.89
YT (IL-2 2.5 ng/mL) [13] | 0
[1] | 0.21
[4] | 0
[5] | 1
[7] | 0
[8] | 0

percent inhibition of viability [%]
Conditions | 0.5 nM | 5 nM | 50 nM | 500 nM | 5000 nM
DERL-7 (IL-2 2.5 ng/mL) [27] | -1.84 | 6.7 | -3.24 | 8.85 | -0.3
IMC-1 (IL-2 20 ng/mL) [25] | -0.05 | 0.08 | 1.73 | 4.6 | 25.9
KAI3 (IL-2 2.5 ng/mL) [23] | 4.32 | 6.7 | 11.6 | 12.4 | 18.3
KHYG-1 (IL-2 2.5 ng/mL) [19] | 2.05 | 18.6 | -0.59 | 2.88 | 6.94
NK-92 (IL-2 2.5 ng/mL) [15] | 3.02 | 0.66 | 4.19 | 19.8 | 18.9
NK-YS (IL-2 2.5 ng/mL) [16] | 4.24 | -1.71 | 1.76 | 0.55 | 14
NKL (IL-2 2.5 ng/mL) [24] | 8.55 | 9.91 | 1.09 | 12.8 | 9.69
SNK-6 (IL-2 2.5 ng/mL) [22] | -4.3 | -11.1 | -26.2 | -25.2 | -1.46
YT (IL-2 2.5 ng/mL) [26] | -0.02 | 9.21 | -0.43 | 11.5 | 4.01
[17] | 5.18 | 4.84 | 1.7 | 15.9 | -1.9
[18] | 2.81 | 1.54 | 10.1 | 10.2 | 16.1
[20] | -9.05 | -7.76 | 5.1 | -0.54 | -7.49
[21] | -1.86 | 7.99 | 1.79 | 9.51 | 6.09
[28] | -3.92 | -2.08 | -4.35 | -1.44 | 15.5

CO[C@H]1/C=C\C=C(/C)C(=O)NC2=CC(=O)C(NCCN(C)C)=C(C[C@@H](C)C[C@H](OC)[C@H](O)[C@@H](C)/C=C(\C)[C@@H]1OC(N)=O)C2=O [Alvespimycin] (max concentration tested 1000 nM)
Conditions | drug sensitivity score
DERL-7 (IL-2 2.5 ng/mL) [14] | 15.1
IMC-1 (IL-2 20 ng/mL) [12] | 8.22
KAI3 (IL-2 2.5 ng/mL) [10] | 15.7
KHYG-1 (IL-2 2.5 ng/mL) [6] | 12.2
NK-92 (IL-2 2.5 ng/mL) [2] | 13.3
NK-YS (IL-2 2.5 ng/mL) [3] | 19.2
NKL (IL-2 2.5 ng/mL) [11] | 16.4
SNK-6 (IL-2 2.5 ng/mL) [9] | 19.9
YT (IL-2 2.5 ng/mL) [13] | 9.86
[1] | 13.3
[4] | 10.3
[5] | 7.28
[7] | 15.5
[8] | 14.8

percent inhibition of viability [%]
Conditions | 0.1 nM | 1 nM | 10 nM | 100 nM | 1000 nM
DERL-7 (IL-2 2.5 ng/mL) [27] | -2.47 | -2.74 | 9.85 | 73.2 | 101
IMC-1 (IL-2 20 ng/mL) [25] | -5.23 | 4.85 | 1.66 | 16.1 | 101
KAI3 (IL-2 2.5 ng/mL) [23] | 3.95 | 3.1 | 8.75 | 78.1 | 104
KHYG-1 (IL-2 2.5 ng/mL) [19] | -3.99 | 2.16 | 2.52 | 55.2 | 107
NK-92 (IL-2 2.5 ng/mL) [15] | -5.39 | 0.79 | 7.9 | 62.4 | 105
NK-YS (IL-2 2.5 ng/mL) [16] | -5 | 5.02 | 9.34 | 96.8 | 105
NKL (IL-2 2.5 ng/mL) [24] | -9.27 | 5.22 | 1.11 | 89.3 | 90.7
SNK-6 (IL-2 2.5 ng/mL) [22] | 11.2 | 9.82 | 13.6 | 97.6 | 91.2
YT (IL-2 2.5 ng/mL) [26] | -0.99 | 6.65 | 4.58 | 35.5 | 97
[17] | -14.3 | -9.11 | 6.58 | 46.3 | 85.2
[18] | 9.61 | -5.61 | 24.6 | 26.1 | 42
[20] | 9.22 | -0.64 | 16.4 | 73 | 87
[21] | -14.3 | -3.64 | 14.4 | 68.9 | 82.6
[28] | -6.1 | -4.9 | -1.57 | 67.3 | 100

S=C(NCc1ccc2c(c1)OCO2)N1CCN(c2ncnc3c2oc2ccccc23)CC1 [Amuvatinib] (max concentration tested 10000 nM)
Conditions | drug sensitivity score
DERL-7 (IL-2 2.5 ng/mL) [14] | 12.9
IMC-1 (IL-2 20 ng/mL) [12] | 7.59
KAI3 (IL-2 2.5 ng/mL) [10] | 4.97
KHYG-1 (IL-2 2.5 ng/mL) [6] | 7.56
NK-92 (IL-2 2.5 ng/mL) [2] | 8.04
NK-YS (IL-2 2.5 ng/mL) [3] | 7.16
NKL (IL-2 2.5 ng/mL) [11] | 11.7
SNK-6 (IL-2 2.5 ng/mL) [9] | 9.4
YT (IL-2 2.5 ng/mL) [13] | 4.88
[1] | 0.55
[4] | 5.25
[5] | 8.27
[7] | 7.49
[8] | 5.67

percent inhibition of viability [%]
Conditions | 1 nM | 10 nM | 100 nM | 1000 nM | 10000 nM
DERL-7 (IL-2 2.5 ng/mL) [27] | 0.19 | 2.67 | 18 | 55.9 | 90.5
IMC-1 (IL-2 20 ng/mL) [25] | -1.71 | -0.29 | 1.01 | 41.2 | 44.1
KAI3 (IL-2 2.5 ng/mL) [23] | 3.55 | -2.41 | 7.21 | 17.6 | 54.5
KHYG-1 (IL-2 2.5 ng/mL) [19] | -5.63 | -5.61 | -1.04 | 24.3 | 73.6
NK-92 (IL-2 2.5 ng/mL) [15] | -8.12 | -11.4 | -3.54 | 36.4 | 65.1
NK-YS (IL-2 2.5 ng/mL) [16] | -2.83 | -6.84 | -2.71 | 12.6 | 91
NKL (IL-2 2.5 ng/mL) [24] | -10.5 | -7.21 | 6.91 | 53.6 | 95
SNK-6 (IL-2 2.5 ng/mL) [22] | 13.3 | -6.01 | 16.5 | 40.9 | 60.9
YT (IL-2 2.5 ng/mL) [26] | -2.59 | -1.83 | 3.31 | 19.5 | 49.5
[17] | -1.07 | 8.45 | 6.14 | 11.8 | 60.8
[18] | 7.55 | 15.6 | 5.58 | 28.6 | 83.9
[20] | -0.46 | 10.3 | 3.46 | 19.5 | 80.3
[21] | -4.53 | 2.76 | 7.13 | 11.1 | 69.2
[28] | -2.56 | -1.86 | -4.91 | 0.6 | 18.6
